SMILES strings stand for the structures. Converted amounts (≈) assume the structure as drawn.

The text below walks through data of patent publication US11117871B2, “Crystalline forms of GSK1278863, preparation method and pharmaceutical use thereof” (GlaxoSmithKline Intellectual Property (No.2) Limited, priority 2017, dated 2021).

Assay type in all cases: physicochemical
The nature of data set [1]: Physical stability of drug substance on storage (XRPD before/after). The note with it: for Solid form after storage: 3 months, XRPD; for Time for which crystalline form of drug substance doesn't change on storage: 40° C./75% RH and 60° C./75% RH. The method, then:
Form CS1 was stored under different conditions of 25° C./60% RH, 40° C./75% RH and 60° C./75% RH. The XRPD pattern overlay before and after being stored is substantially as depicted in FIG. 13, FIG. 14 and FIG. 15.
Form CS9 was stored under different conditions of 25° C./60% RH, 40° C./75% RH and 60° C./75% RH. The XRPD pattern overlay before and after being stored is substantially as depicted in FIG. 16, FIG. 17 and FIG. 18.

Data set [2] in a line: Flowability by compressibility index (USP 1174). The note with it: for Bulk density: 5 mL measuring cylinder, before tapping; for Tapped density: 500 taps; for Compressibility index: (Tapped Density−Bulk Density)/Tapped Density×100%; for Flowability: scale of USP 1174 by compressibility index. The method, then: According to the United States Pharmacopeia (USP) 1174, flowability of Form CS1 and Form CS9 of the present disclosure were evaluated by the compressibility index. The bulk density, tapped density of Form CS1 and Form CS9 were tested, and compressibility index was calculated.
1. Test Method • Samples: Form CS1 and Form CS9 • Instrument: Tap density tester • Utensil: 5 mL measuring cylinder • Number of tapping: 500 times • Bulk density=m/vQ (Mass/volume before tapping) • Tapped density=m/vt (Mass/volume after tapping)
2. Calculation Formula: Compressibility Index (%)=(Tapped Density−Bulk Density)/Tapped Density×100%

The nature of data set [3]: Stability of crystalline form in drug products (tablets). The note with it: for Crystalline form before and after formulation process (in words): blending and tableting at 5 KN±1 KN; for Crystalline form of drug substance in the drug products after storage (in words): tablets, 40° C., 1 month. The method, then: (§1) Form CS1 or Form CS9 of GSK1278863, microcrystalline cellulose, croscarmellose sodium and magnesium stearate were weighed according to formulation in Table 14 and blended for 2 minutes. The tablets were prepared using a manual tablet press at 5 KN±1 KN pressure with a φ7 mm round tooling. The tablets tablet weight is 100 mg±1 mg. The obtained tablets were packed in 35 cc HDPE bottles (one tablet per bottle) with 1 g desiccant. The bottles were sealed with a sealer.
The above obtained tablets were stored under 40° C./[…] condition for 1 month. […] The results are shown in Table 16, which indicate that Form CS1 and Form CS9 have good stability in the drug products.

A short description of data set [4]: In vitro dissolution of tablets (Chinese Pharmacopoeia 2015 <0931>, paddle). The note with it: tablet, pH=6.8 phosphate buffer + 1% SDS, 37° C., 75 rpm. The method, then:
as §1
In vitro dissolution test was performed on obtained tablets and dissolution method according to Chinese Pharmacopoeia 2015<0931> was used. The conditions are as follows:
Medium: pH=6.8 phosphate buffer solution+1% sodium dodecyl sulfate aqueous solution

Data set [5] can be described thus: Hygroscopicity by dynamic vapor sorption (DVS). The note with it: for Hygroscopicity (in words): 25° C./80% RH; for Weight gain under 80% Relative Humidity: DVS, 25° C., 80% RH. The method, then:
Dynamic vapor sorption (DVS) was applied to test hygroscopicity of Form CS1, Form CS9 and the prior art solid with about 10 mg of samples under 25 °C. The DVS plots of Form CS1, Form CS9 and the prior art solid are substantially as depicted in FIG. 10, FIG. 11 and FIG. 12.

Data set [6] is described as follows: Kinetic solubility in SGF, FeSSIF, FaSSIF and pure water (HPLC). The note with it: for Solubility (in words): SGF, FeSSIF, FaSSIF and pure water. An excerpt: Solubility test method according to the Chinese Pharmacopoeia was used and different pHs of different organs in human body were considered. According to the above two references, a solvent media set with four pH values range from 1.2 to 7.5 were designed in the present disclosure. Specifically: SGF (Simulated gastric fluids, pH=1.8), FeSSIF (Fed state simulated intestinal fluids, pH=5.0), FaSSIF (Fasted state simulated intestinal fluids, pH=6.5), and pure water were used.
Form CS1 and Form CS9 of the present disclosure were suspended into SGF, FeSSIF, FaSSIF and H2O to obtain saturated solutions. The solutions were sampled at fixed time points. Concentrations of the saturated solutions were measured by HPLC to measure the kinetic solubility of Form CS1 and Form CS9.

On to `O=C(O)CNC(=O)C1C(=O)N(C2CCCCC2)C(=O)N(C2CCCCC2)C1=O` [Form CS1], for which the “Solid form after storage” value in data set [1] (25° C./60% RH), in data set [1] (40° C./75% RH) and in data set [1] (60° C./75% RH) was “Form CS1” in each case. In addition, the “Time for which crystalline form of drug substance doesn't change on storage” value in data set [1] (25° C./60% RH) is “at least 3 months”. This molecule also yielded a Bulk density in data set [2] of 0.15 g/mL. This molecule displayed a Tapped density in data set [2] of 0.19 g/mL. Also, the Compressibility index in data set [2] was found to be 21%. Further, in data set [2], the Flowability entry was “Passable (21%-25%, passable flowability)”. The “Crystalline form before and after formulation process (in words)” value in data set [3] is “doesn't change”. The “Crystalline form of drug substance in the drug products after storage (in words)” value in data set [3] is listed as “does not change”. Also, the Cumulative drug release in data set [4] (5 min) amounted to 0.0%; in data set [4] (10 min), 67.7%; in data set [4] (20 min), 75.8%; in data set [4] (30 min), 84.8%; in data set [4] (45 min), 90.1%; in data set [4] (60 min), 95.2%. The Cumulative drug release in data set [4] (90 min) is reported as 98.3%; in data set [4] (120 min) it was 102.5%. Besides, in data set [5], the “Hygroscopicity (in words)” value is on record as “not hygroscopic”. Also, in data set [5], the “Weight gain under 80% Relative Humidity” value is 0.53%. The kinetic solubility at 1 h in data set [6] (FaSSIF (fasted state simulated intestinal fluid), pH 6.5, fassif, thermodynamic from solid, FaSSIF (pH=6.5), 1 h) is 63 µg/mL (≈ 160 µM); in data set [6] (FeSSIF (fed state simulated intestinal fluid), pH 5, fessif, thermodynamic from solid, FeSSIF (pH=5.0), 1 h), 190 µg/mL (≈ 483 µM); in data set [6] (SGF (simulated gastric fluid), pH 1.8, simulated gastric fluid, thermodynamic from solid, SGF (pH=1.8), 1 h), 3.1 µg/mL (≈ 7.88 µM); in data set [6] (pure water, water, thermodynamic from solid, H2O, 1 h), 14 µg/mL (≈ 35.6 µM). Besides, the kinetic solubility at 4 h in data set [6] (FaSSIF (fasted state simulated intestinal fluid), pH 6.5, fassif, thermodynamic from solid, FaSSIF (pH=6.5), 4 h) was 50 µg/mL (≈ 127 µM); in data set [6] (FeSSIF (fed state simulated intestinal fluid), pH 5, fessif, thermodynamic from solid, FeSSIF (pH=5.0), 4 h), 190 µg/mL (≈ 483 µM); in data set [6] (SGF (simulated gastric fluid), pH 1.8, simulated gastric fluid, thermodynamic from solid, SGF (pH=1.8), 4 h), 3.1 µg/mL (≈ 7.88 µM); in data set [6] (pure water, water, thermodynamic from solid, H2O, 4 h), 26 µg/mL (≈ 66.1 µM). Also, the Kinetic solubility in data set [6] (FaSSIF (pH=6.5), 24 h) was 27 µg/mL; in data set [6] (H2O, 24 h), 16 µg/mL; in data set [6] (SGF (pH=1.8), 24 h), 3 µg/mL. This molecule also registered a solubility (kinetic) at 24 h in data set [6] (FeSSIF (fed state simulated intestinal fluid), pH 5, fessif, thermodynamic from solid, FeSSIF (pH=5.0), 24 h) of 160 µg/mL (≈ 407 µM). In data set [6], the “Solubility (in words)” value is on record as “good solubility”.

As to `O=C(O)CNC(=O)C1C(=O)N(C2CCCCC2)C(=O)N(C2CCCCC2)C1=O` [Form CS9], the “Solid form after storage” value in data set [1] (25° C./60% RH), in data set [1] (40° C./75% RH) and in data set [1] (60° C./75% RH) was “Form CS9” each time. For the same molecule, the “Time for which crystalline form of drug substance doesn't change on storage” value in data set [1] (25° C./60% RH) is listed as “at least 3 months”. Moreover, the Bulk density in data set [2] came out at 0.11 g/mL. The Tapped density in data set [2] is on record as 0.14 g/mL. Further, the Compressibility index in data set [2] was found to be 21%. Further, the Flowability entry in data set [2] is recorded as “Passable (21%-25%, passable flowability)”. The “Crystalline form before and after formulation process (in words)” value in data set [3] is reported as “doesn't change”. Besides, in data set [3], the “Crystalline form of drug substance in the drug products after storage (in words)” value is listed as “does not change”. In addition, in data set [5], the “Hygroscopicity (in words)” value is recorded as “not hygroscopic”. Besides, the “Weight gain under 80% Relative Humidity” value in data set [5] stood at 0.22%. For the same molecule, the Kinetic solubility in data set [6] (FaSSIF (pH=6.5), 1 h) was 58 µg/mL; in data set [6] (FaSSIF (pH=6.5), 4 h), 81 µg/mL; in data set [6] (FaSSIF (pH=6.5), 24 h), 81 µg/mL; in data set [6] (FeSSIF (pH=5.0), 1 h), 150 µg/mL; in data set [6] (FeSSIF (pH=5.0), 4 h), 170 µg/mL; in data set [6] (FeSSIF (pH=5.0), 24 h) it was 140 µg/mL. For the same molecule, the Kinetic solubility in data set [6] (H2O, 1 h) came to 20 µg/mL; in data set [6] (H2O, 4 h), 38 µg/mL; in data set [6] (H2O, 24 h) it was 60 µg/mL; in data set [6] (SGF (pH=1.8), 1 h), 3.9 µg/mL; in data set [6] (SGF (pH=1.8), 4 h) it was 4.2 µg/mL; in data set [6] (SGF (pH=1.8), 24 h), 9.3 µg/mL. Besides, in data set [6], the “Solubility (in words)” value is recorded as “good solubility”.

As to `O=C(O)CNC(=O)C1C(=O)N(C2CCCCC2)C(=O)N(C2CCCCC2)C1=O` [The prior art solid, reference compound], the “Hygroscopicity (in words)” value in data set [5] was “higher hygroscopicity”. Moreover, the “Weight gain under 80% Relative Humidity” value in data set [5] and in data set [5] (listed as prior art solid) was 1.14% each time.
